Holding throughout (experiment): inhibition of tumour cell growth, NCI panel, 48 h
For assay [1], the system named is TK-10 renal.
Assay [2] relates to MOLT-4 leukemia.
Assay [3] deals with MALME-3M melanoma.
Assay [4] deals with OVCAR-8 ovarian.
The test system of assay [5] is OVCAR-5 ovarian.
The test system of assay [6] is SF-268 CNS.
Assay [7] concerns HT29 colon.
The test system of assay [8] is MCF7 breast.
The subject of assay [9] is MDA-MB-231 breast.

“And” between values parts separate entries of the source, which are not always exact repeats. Equal values may be shown once.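 Step 1: Grow cells in 96-well plates. Step 2: Expose to compound for 48 hours at 5 concentrations. Step 3: Interpolate endpoints linearly; if unreached, use highest concentration. GI50 marks 50% less growth. TGI marks complete inhibition of growth.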

Turning to `CC(=O)Nc1ccc(C2CC(c3ccc([N+](=O)[O-])cc3)=Nc3ccccc3S2)cc1` (stereo not drawn), the TGI in assay [1] was 44.4 µM; in assay [2], 39.6 µM; in assay [3], 35.1 µM; in assay [4], 35.4 µM; in assay [5] it was 41.5 µM; in [6], 77.9 µM. In [7], this molecule came in with a TGI of 28.7 µM.
`COC1=CC(c2ccc[nH]2)=N/C1=C\c1[nH]c(C)c(C(=O)CCCCCCCCC(=O)O[C@H]2CC[C@H]3C4CCc5cc(O)ccc5C4CC[C@]23C)c1C` (stereo partly drawn): the GI50 in assay [1] was 0.861 µM; in assay [2] it was 0.428 µM; in [3] it was 2.49 µM; in [8], 0.37 µM; in [4], 0.378 µM; in assay [5] it was 1.24 µM. Further, the GI50 is 0.148 µM in assay [9], 0.429 µM in assay [6] and 0.21 µM in assay [7]. Moreover, the TGI was above 50 µM in assay [1]; above 50 µM in assay [2]; above 36.3 µM in assay [3]; above 50 µM in assay [8]; above 50 µM in assay [4]; above 50 µM in assay [5]. The values for the TGI in assay [9], in assay [6] and in [7] were 7.06 µM, above 50 µM and above 50 µM, respectively.
Take `N/N=C(/Cc1ccccc1)NNO`: the TGI in assay [1], in [2], in assay [3], in [5], in [6] and in assay [7] was above 100 µM in each case.
Turning to `CCCCCCCC(=O)OCC/C=C/C1OC1C1OC(=O)/C=C\C=C\C(=O)N(C(C)=O)C(=O)/C=C(/C)CCC2OC2C1OC(=O)NC(C)=O` (stereo not drawn), the GI50 was 6.91 µM in [1]; 10.1 µM in assay [2]; above 25 µM in [3]; 1.7 µM in assay [8]; 3.64 µM in [4]; 4.88 µM in [5]. The results for the GI50 in [9], in [6] and in assay [7] were 10.5 µM, 4.6 µM and 4.03 µM, respectively. For the same molecule, the TGI in assay [1] is 22.2 µM; in assay [2] it was above 25 µM; in assay [3], above 25 µM; in [8], 11.5 µM; in assay [4], 16.6 µM; in assay [5], 11.5 µM. In addition, the TGI was above 25 µM in assay [9], 12.1 µM in [6] and 14.4 µM in [7].
Take `CC(C)(C)C#COC(=O)c1ccccc1`: the TGI in assay [2], in assay [3], in [4], in assay [5], in assay [6] and in assay [7] was above 100 µM each time.
For `CN1CCCC2[C@@H]3CCC4c5nonc5CC[C@]4(C)C3CC[C@@]21C` (stereo partly drawn), the TGI in [1], in assay [2], in [3], in [4], in assay [5] and in assay [7] was above 100 µM each time.
As for `c1ccc2c(c1)[nH]c1c2nc2ccccn21`, the TGI in [1], in assay [2], in [3], in assay [4], in assay [5] and in [6] was above 100 µM in each case. Moreover, in assay [7], the TGI was above 100 µM. Also, in assay [3], the GI50 was 27.8 µM and > 100 µM.
For `Cn1c(=O)oc2cc(C3CCC(=O)N3Cc3csc(-c4ccccc4)n3)ccc21` (stereo not drawn), the TGI in assay [1], in [2], in assay [3], in assay [4], in [5] and in assay [6] was above 100 µM in each case. Moreover, the TGI in assay [7] is above 100 µM.
Consider `Cc1ccc(C2=CC(=O)c3ccccc3C2=O)n1-c1ccccc1`, for which the TGI in [1] is above 100 µM; in assay [2], 98.5 µM; in assay [4], above 100 µM; in [6] it was above 100 µM; in [7] it was above 100 µM.
In the case of `Cc1cc2c(c(C(=O)O)c1C)-c1cccc(Cl)c1C2=O`, the TGI in assay [1], in assay [2], in assay [3], in assay [4], in assay [5] and in [6] was above 100 µM each time. In addition, the TGI in assay [7] is above 100 µM.
`COc1ccc(-c2nc3ccccc3s2)cc1OC`: the TGI in assay [2], in assay [4], in assay [5], in assay [9] and in assay [7] was above 100 µM in each case.
Take `O=c1c(Cc2ccccc2)c(O)cc2n1CCC2`: the TGI in [1], in assay [2], in [3], in assay [4], in [5] and in assay [6] was above 100 µM each time. Moreover, the TGI in assay [7] is above 100 µM.
On to `Cc1c(C)c([N+](=O)[O-])c2c(c1N)C(=O)c1ccccc1C2=O`, for which the TGI in assay [1], in assay [2], in assay [3], in assay [4], in assay [5] and in [6] was above 100 µM each time. This molecule returned a TGI in assay [7] above 100 µM.
For the molecule `O=c1c2cccnc2ncn1CCCN1CCCCC1`, the TGI in assay [1], in assay [2], in [3], in [4], in assay [5] and in assay [6] was above 100 µM throughout. In addition, the TGI in assay [7] was above 100 µM.
On to `O=c1[nH]ccc(CNC23CC4CC(CC(C4)C2)C3)c1O`, for which the TGI in assay [1], in [2], in [3], in assay [4], in [5] and in assay [7] was above 100 µM in each case.
For `O=C(c1ccccc1)C1N=NN(Cc2ccccc2[N+](=O)[O-])C1C(=O)c1ccccc1` (stereo not drawn), the TGI in assay [1], in assay [2], in [3], in assay [4], in assay [5] and in assay [6] was above 100 µM throughout. In assay [7], this molecule had a TGI above 100 µM.
`O=C1NC(O)n2c(=O)[nH]c(=O)n21` (stereo not drawn): the TGI in assay [1], in assay [2], in assay [4], in assay [5], in assay [6] and in assay [7] was above 100 µM throughout.

Values taken from PubChem BioAssay (NCI).
